# Test results taken from article PMC7413254 (Nature Communications, 2020).
# Where two headings read alike, the source gives them in different places.
# Tests used:
# [1] = system: non-expressing oocytes; experiment: cells; assay type: cell-based, Xenopus laevis; settings: non-expressing oocytes, total [3H]CQ transport, normalised to the oocyte type control
# In short: (§1)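 Inward transport into oocyte cytosol from pH 5.5 medium models PfCRT efflux from the acidic digestive vacuole. Incubation 1.5 h, 27.5 °C; termination by ice-cold washes; lysate radioactivity counted.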
# [2] = target: T1, PfCRT^3D7 (Plasmodium falciparum, UniProt Q8IBZ9); experiment: cell-based; assay type: cell-based; settings: PfCRT3D7 oocytes, total [3H]CQ transport, normalised to the oocyte type control
# In short: as §1
# [3] = target: T2, PfCRT^Dd2 (Plasmodium falciparum, UniProt Q9N623, A220S/I356T/K76T/M74I/N326S/N75E/Q271E/R371I); experiment: [3H]CQ uptake into Xenopus oocytes, cis-inhibition by unlabelled solute; assay type: cell-based; settings: PfCRTDd2 oocytes, background [3H]CQ accumulation subtracted, normalised to oocyte type control
# In short: as §1
# [4] = target: T3, PfCRT^Ecu1110 (Plasmodium falciparum, UniProt Q9N623, A220S/I356L/K76T/N326D); experiment: as above; assay type: cell-based; settings: for Uptake of [3H]CQ (% PfCRTEcu1110 control), cis-inhibition / PfCRT-mediated [3H]CQ transport, cis-inhibition (% PfCRTEcu1110 control): PfCRTEcu1110 oocytes; for Uptake of [3H]CQ (% PfCRTEcu1110 control), cis-inhibition: total [3H]CQ transport, normalised to the oocyte type control; for PfCRT-mediated [3H]CQ transport, cis-inhibition (% PfCRTEcu1110 control): background [3H]CQ accumulation subtracted, normalised to oocyte type control; for [3H]CQ transport (% PfCRTEcu1110 control), cis-inhibition, PfCRTEcu1110: PfCRT-mediated component (background subtracted), sheet title says normalised to PfCRTDd2 control, mean ± SEM, SEM
# In short: as §1
# [5] = target: T2, PfCRT^Dd2; experiment: cell-based; assay type: cell-based; settings: for Uptake of [3H]CQ (% PfCRTDd2 control), trans-stimulation / PfCRT-mediated [3H]CQ transport, trans-stimulation (% PfCRTDd2 control): PfCRTDd2 oocytes; for Uptake of [3H]CQ (% PfCRTDd2 control), trans-stimulation: total [3H]CQ transport, normalised to the oocyte type control; for PfCRT-mediated [3H]CQ transport, trans-stimulation (% PfCRTDd2 control): normalised to oocyte type control; for [3H]CQ transport (% PfCRTDd2 control), trans-stimulation, PfCRTDd2: PfCRT-mediated component (background subtracted), mean ± SEM, SEM
# In short: (§2)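 Oocytes (ten per treatment, ≥4 independent frogs/days) were preloaded by injecting VF-6 in 25 nL ND96 at pH 5.0, 5.5, 6.0 or 7.0, or Na^+-free choline buffer, then uptake run 1.5 h, 27.5 °C, ND96 pH 5.5 by default. Internal concentrations assumed ~400 nL oocyte volume.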
# [6] = target: T3, PfCRT^Ecu1110; experiment: cell-based; assay type: cell-based; settings: for Uptake of [3H]CQ (% PfCRTEcu1110 control), trans-stimulation / PfCRT-mediated [3H]CQ transport, trans-stimulation (% PfCRTEcu1110 control): PfCRTEcu1110 oocytes; for Uptake of [3H]CQ (% PfCRTEcu1110 control), trans-stimulation: total [3H]CQ transport, normalised to the oocyte type control; for PfCRT-mediated [3H]CQ transport, trans-stimulation (% PfCRTEcu1110 control): normalised to oocyte type control; for [3H]CQ transport (% PfCRTDd2 control), trans-stimulation, PfCRTEcu1110: PfCRT-mediated component (background subtracted), sheet title says normalised to PfCRTDd2 control, mean ± SEM, SEM
# In short: as §2
# [7] = target: T4, PfNT1 (Plasmodium falciparum, UniProt Q8IDM6); experiment: cell-based; assay type: cell-based; settings: PfNT1 oocytes, total [3H]CQ transport, normalised to the oocyte type control
# T4 construct: expressed in transfected cells; host or cells: Xenopus laevis oocytes (stage V-VI), cRNA-injected
# In short: as §2
# [8] = target: T1, PfCRT^3D7; experiment: cell-based; assay type: cell-based; settings: for Uptake of [3H]CQ (% PfCRT3D7 control), trans-stimulation / PfCRT-mediated [3H]CQ transport, trans-stimulation (% PfCRT3D7 control): PfCRT3D7 oocytes; for Uptake of [3H]CQ (% PfCRT3D7 control), trans-stimulation: total [3H]CQ transport, normalised to the oocyte type control; for PfCRT-mediated [3H]CQ transport, trans-stimulation (% PfCRT3D7 control): normalised to oocyte type control
# In short: as §2
# [9] = system: non-expressing oocytes; assay type: cell-based, Xenopus laevis; settings: non-expressing oocytes, total [3H]CQ transport, normalised to the oocyte type control
# In short: as §2
# [10] = [test solute]i = 45 mM (30 mM for some solutes due to solubility)
# [11] = [test solute]i = 5 mM (intracellular)
# [12] = [test solute]i = 45 mM (intracellular; 30 mM for some solutes due to solubility)
# [13] = [test solute]i = 5 mM (injected)
# T2 sequence (Q9N623 whole entry A220S/I356T/K76T/M74I/N326S/N75E/Q271E/R371I): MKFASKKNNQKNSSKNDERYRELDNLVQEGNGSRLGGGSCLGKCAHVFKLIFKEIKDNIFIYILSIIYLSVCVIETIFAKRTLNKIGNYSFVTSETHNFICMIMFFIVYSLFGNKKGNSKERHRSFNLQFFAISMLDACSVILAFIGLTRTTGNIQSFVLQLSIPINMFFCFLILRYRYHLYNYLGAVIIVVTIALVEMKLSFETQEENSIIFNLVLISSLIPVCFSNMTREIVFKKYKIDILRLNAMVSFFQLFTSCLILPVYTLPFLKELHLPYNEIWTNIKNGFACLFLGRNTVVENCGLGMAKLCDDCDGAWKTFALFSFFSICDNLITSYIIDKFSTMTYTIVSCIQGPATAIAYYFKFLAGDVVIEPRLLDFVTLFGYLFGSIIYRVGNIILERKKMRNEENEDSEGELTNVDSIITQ
# T3 sequence (Q9N623 whole entry A220S/I356L/K76T/N326D): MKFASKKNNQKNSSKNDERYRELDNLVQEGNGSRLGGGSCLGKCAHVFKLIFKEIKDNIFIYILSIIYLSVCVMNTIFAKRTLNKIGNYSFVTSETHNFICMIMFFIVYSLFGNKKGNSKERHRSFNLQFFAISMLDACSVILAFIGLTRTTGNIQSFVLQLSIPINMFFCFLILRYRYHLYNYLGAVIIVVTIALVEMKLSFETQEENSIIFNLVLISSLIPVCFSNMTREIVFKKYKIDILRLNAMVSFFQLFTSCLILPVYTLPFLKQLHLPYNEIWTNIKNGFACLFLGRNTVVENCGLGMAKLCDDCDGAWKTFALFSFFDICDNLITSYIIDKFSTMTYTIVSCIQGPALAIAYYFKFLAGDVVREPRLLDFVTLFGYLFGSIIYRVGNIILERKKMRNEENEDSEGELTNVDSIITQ
# T1 sequence (Q8IBZ9 59-398): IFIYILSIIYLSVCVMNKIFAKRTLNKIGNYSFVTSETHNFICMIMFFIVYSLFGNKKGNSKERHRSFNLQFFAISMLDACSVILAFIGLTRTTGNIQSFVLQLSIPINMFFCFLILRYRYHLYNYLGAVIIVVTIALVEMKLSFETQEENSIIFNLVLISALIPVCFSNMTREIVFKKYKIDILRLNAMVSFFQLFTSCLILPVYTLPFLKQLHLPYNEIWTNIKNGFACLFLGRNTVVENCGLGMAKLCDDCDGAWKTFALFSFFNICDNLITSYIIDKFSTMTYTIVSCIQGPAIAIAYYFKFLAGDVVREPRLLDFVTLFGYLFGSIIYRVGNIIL
# T4 sequence (Q8IDM6 whole entry): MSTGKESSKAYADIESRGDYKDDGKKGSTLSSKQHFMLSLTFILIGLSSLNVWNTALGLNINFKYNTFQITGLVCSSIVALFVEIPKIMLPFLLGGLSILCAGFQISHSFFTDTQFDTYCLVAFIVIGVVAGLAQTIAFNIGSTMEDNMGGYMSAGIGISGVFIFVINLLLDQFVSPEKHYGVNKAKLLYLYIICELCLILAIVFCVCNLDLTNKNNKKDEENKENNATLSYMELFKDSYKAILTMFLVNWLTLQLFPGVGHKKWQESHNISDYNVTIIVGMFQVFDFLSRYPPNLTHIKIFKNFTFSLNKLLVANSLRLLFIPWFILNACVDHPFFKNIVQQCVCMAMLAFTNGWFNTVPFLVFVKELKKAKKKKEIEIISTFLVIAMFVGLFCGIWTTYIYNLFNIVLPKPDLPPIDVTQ
substance,measurement,setting,value
PHFD [PD-4],"Uptake of [3H]CQ (% non-expressing oocyte control), cis-inhibition",[1]; [test solute] = 0.5 mM,100 ± 4.3 % non-expressing oocyte control
same,"Uptake of [3H]CQ (% non-expressing oocyte control), cis-inhibition",[1]; [test solute] = 1 mM,100 ± 3.7 % non-expressing oocyte control
same,"Uptake of [3H]CQ (% non-expressing oocyte control), cis-inhibition",[1]; [test solute] = 2 mM,100 ± 4.6 % non-expressing oocyte control
same,"Uptake of [3H]CQ (% PfCRT3D7 control), cis-inhibition",[2]; [test solute] = 0.5 mM,98 ± 5.6 % PfCRT3D7 control
same,"Uptake of [3H]CQ (% PfCRT3D7 control), cis-inhibition",[2]; [test solute] = 1 mM,100 ± 5.5 % PfCRT3D7 control
same,"Uptake of [3H]CQ (% PfCRT3D7 control), cis-inhibition",[2]; [test solute] = 2 mM,99 ± 3.5 % PfCRT3D7 control
same,"PfCRT-mediated [3H]CQ transport, cis-inhibition (% PfCRTDd2 control)",[3]; [test solute] = 0.5 mM,56 ± 1.1 % PfCRTDd2 control
same,"PfCRT-mediated [3H]CQ transport, cis-inhibition (% PfCRTDd2 control)",[3]; [test solute] = 1 mM,42 ± 0.5 % PfCRTDd2 control
same,"PfCRT-mediated [3H]CQ transport, cis-inhibition (% PfCRTDd2 control)",[3]; [test solute] = 2 mM,17 ± 0.7 % PfCRTDd2 control
same,"Uptake of [3H]CQ (% PfCRTEcu1110 control), cis-inhibition",[4]; [test solute] = 0.5 mM,54 ± 3.1 % PfCRTEcu1110 control
same,"Uptake of [3H]CQ (% PfCRTEcu1110 control), cis-inhibition",[4]; [test solute] = 1 mM,38 ± 3.1 % PfCRTEcu1110 control
same,"Uptake of [3H]CQ (% PfCRTEcu1110 control), cis-inhibition",[4]; [test solute] = 2 mM,27 ± 0.8 % PfCRTEcu1110 control
same,"PfCRT-mediated [3H]CQ transport, cis-inhibition (% PfCRTEcu1110 control)",[4]; [test solute] = 0.5 mM,49 ± 2.1 % PfCRTEcu1110 control
same,"PfCRT-mediated [3H]CQ transport, cis-inhibition (% PfCRTEcu1110 control)",[4]; [test solute] = 1 mM,33 ± 1.5 % PfCRTEcu1110 control
same,"PfCRT-mediated [3H]CQ transport, cis-inhibition (% PfCRTEcu1110 control)",[4]; [test solute] = 2 mM,24 ± 1.1 % PfCRTEcu1110 control
same,"[3H]CQ transport (% PfCRTEcu1110 control), cis-inhibition, PfCRTEcu1110",[4]; [test solute] = 0.5 mM,15 ± 0.5 % PfCRTEcu1110 control
same,"[3H]CQ transport (% PfCRTEcu1110 control), cis-inhibition, PfCRTEcu1110",[4]; [test solute] = 1 mM,10 ± 0.1 % PfCRTEcu1110 control
same,"[3H]CQ transport (% PfCRTEcu1110 control), cis-inhibition, PfCRTEcu1110",[4]; [test solute] = 2 mM,8.0 ± 0.06 % PfCRTEcu1110 control
same,"Uptake of [3H]CQ (% PfCRTDd2 control), trans-stimulation",[5]; [test solute]i = 5 mM,102 ± 2.4 % PfCRTDd2 control
same,"Uptake of [3H]CQ (% PfCRTDd2 control), trans-stimulation",[5]; [10],99 ± 2.9 % PfCRTDd2 control
same,"PfCRT-mediated [3H]CQ transport, trans-stimulation (% PfCRTDd2 control)",[5]; [11],100 ± 4.2 % PfCRTDd2 control
same,"PfCRT-mediated [3H]CQ transport, trans-stimulation (% PfCRTDd2 control)",[5]; [12],97 ± 2.8 % PfCRTDd2 control
same,"[3H]CQ transport (% PfCRTDd2 control), trans-stimulation, PfCRTDd2",[5]; [13],100 ± 4.2 % PfCRTDd2 control
same,"[3H]CQ transport (% PfCRTDd2 control), trans-stimulation, PfCRTDd2",[5]; [10],97 ± 2.8 % PfCRTDd2 control
same,"Uptake of [3H]CQ (% PfCRTEcu1110 control), trans-stimulation",[6]; [test solute]i = 5 mM,98 ± 1.4 % PfCRTEcu1110 control
same,"Uptake of [3H]CQ (% PfCRTEcu1110 control), trans-stimulation",[6]; [10],100 ± 3.5 % PfCRTEcu1110 control
same,"PfCRT-mediated [3H]CQ transport, trans-stimulation (% PfCRTEcu1110 control)",[6]; [11],96 ± 3.2 % PfCRTEcu1110 control
same,"PfCRT-mediated [3H]CQ transport, trans-stimulation (% PfCRTEcu1110 control)",[6]; [12],98 ± 4.3 % PfCRTEcu1110 control
same,"[3H]CQ transport (% PfCRTDd2 control), trans-stimulation, PfCRTEcu1110",[6]; [13],29 ± 1.4 % PfCRTEcu1110 control
same,"[3H]CQ transport (% PfCRTDd2 control), trans-stimulation, PfCRTEcu1110",[6]; [10],30 ± 1.6 % PfCRTEcu1110 control
same,"Uptake of [3H]CQ (% PfNT1 control), trans-stimulation",[7]; [test solute]i = 5 mM,100 ± 3.5 % PfNT1 control
same,"Uptake of [3H]CQ (% PfNT1 control), trans-stimulation",[7]; [10],98 ± 2.2 % PfNT1 control
same,"Uptake of [3H]CQ (% PfCRT3D7 control), trans-stimulation",[8]; [test solute]i = 5 mM,99 ± 3.6 % PfCRT3D7 control
same,"Uptake of [3H]CQ (% PfCRT3D7 control), trans-stimulation",[8]; [10],100 ± 2.1 % PfCRT3D7 control
same,"[3H]CQ transport (% PfCRT3D7 control), trans-stimulation, PfCRT3D7",[8]; SEM,0.1 ± 0.02
same,"PfCRT-mediated [3H]CQ transport, trans-stimulation (% PfCRT3D7 control)",[8]; [11],97 ± 2.9 % PfCRT3D7 control
same,"PfCRT-mediated [3H]CQ transport, trans-stimulation (% PfCRT3D7 control)",[8]; [12],98 ± 4.2 % PfCRT3D7 control
same,"Uptake of [3H]CQ (% non-expressing oocyte control), trans-stimulation",[9]; [test solute]i = 5 mM,98 ± 2.0 % non-expressing oocyte control
same,"Uptake of [3H]CQ (% non-expressing oocyte control), trans-stimulation",[9]; [10],99 ± 3.7 % non-expressing oocyte control
